Calls of active or inactive are those of the source. The calls are words filed in the database; no cut-off is given here.
Tested on: Mus musculus
Assay: Pain relieving effect in mouse oxaliplatin-induced neuropathic pain model at 100 mg/kg, po measured over 15 to 45 mins by cold plate test
Format: functional, organism-based

| Compound | Activity |
| --- | --- |
| COCC[Se]c1ccc(S(N)(=O)=O)cc1 | Active |
| NS(=O)(=O)c1ccc([Se]CCc2ccccc2)cc1 | Active |

Target: Carbonic anhydrase 9 (Homo sapiens, UniProt Q16790)
Assay: Inhibition of human carbonic anhydrase 9 incubated for 15 mins prior to testing by stopped-flow CO2 hydration assay

| Compound | Ki |
| --- | --- |
| NS(=O)(=O)c1ccc(C[Se]c2ccc(NC(=S)Nc3ccc(-c4c5ccc(=O)cc-5oc5cc(O)ccc45)c(C(=O)O)c3)cc2)cc1 | 697 nM |
| NS(=O)(=O)c1ccc(C[Se]c2ccc(NC(=O)Nc3ccc(F)cc3)cc2)cc1 | 1070 nM |
| NS(=O)(=O)c1ccc(C[Se]c2ccc(NC(=O)/C=C/c3ccccc3)cc2)cc1 | 1010 nM |
| CC(=O)Oc1ccccc1C(=O)Nc1ccc([Se]Cc2ccc(S(N)(=O)=O)cc2)cc1 | 710 nM |
| NS(=O)(=O)c1ccc(C[Se]c2ccc3ccccc3c2)cc1 | 337 nM |
| Nc1ccc([Se]Cc2ccc(S(N)(=O)=O)cc2)cc1 | 286 nM |
| Cc1cc(C)cc(NC(=O)Nc2ccc([Se]Cc3ccc(S(N)(=O)=O)cc3)cc2)c1 | 1140 nM |
| CN(C)c1ccc([Se]Cc2ccc(S(N)(=O)=O)cc2)cc1 | 450 nM |
| NS(=O)(=O)c1ccc([Se]CC2CC2)cc1 | 46.4 nM |
| N#C[Se]Cc1ccc(S(N)(=O)=O)cc1 | 4 nM |
| COc1ccc(C(=O)Nc2ccc([Se]Cc3ccc(S(N)(=O)=O)cc3)cc2)c(OC)c1 | 845 nM |
| NS(=O)(=O)c1ccc([Se]Cc2ccccc2)cc1 | 549 nM |

Tested on: Mus musculus
Assay: Pain relieving effect in mouse oxaliplatin-induced neuropathic pain model at 30 mg/kg, po measured at 30 mins by cold plate test
Format: functional, organism-based

| Compound | Activity |
| --- | --- |
| NS(=O)(=O)c1ccc(C[Se]c2ccccc2)cc1 | Active |

From ChEMBL document CHEMBL4152274, “Design, synthesis and X-ray crystallography of selenides bearing benzenesulfonamide moiety with neuropathic pain modulating effects” (Eur J Med Chem, 2018)
